In the series the test system is Daudi-Cas9 cells. In words: Cancer-T cell co-culture genome-wide CRISPR knockout screen (Vγ9Vδ2 T cell killing). The class given is cell-based, human.
Where [1] appears, read: MAGeCK sgRNA test, co-culture screen.
Setting [2] is: log-fold change of sgRNA, surviving cells after co-culture vs baseline, MAGeCK.
The mark [3] stands for this setting: sgRNA abundance in surviving Daudi-Cas9 KO cells after 24 hours Vγ9Vδ2 T cell co-culture with zoledronate, MAGeCK.
The mark [4] stands for this setting: sgRNA enriched (TRUE) or depleted (FALSE) after T cell co-culture.

Read-outs that look alike come from different tables or passages of the source.

Consider “DKK1_CGCTAGTCCCACCCGCGGA: library sgRNA targeting DKK1 (as printed in the source, key not given here)”, for which the score under setting [1] came out at 6.0866. For the same substance, the LFC under setting [2] is 1.0785. The treat mean under setting [3] was 4197.4. Further, the high_in_treatment entry under setting [4] is “TRUE”.
Under setting [1], “SCO1_CACCCCCGTGGTCGCAGAA: library sgRNA targeting SCO1 (listed as DNA, chemistry not fully specified)” displayed a score of 10.413. Under setting [2], the LFC is recorded as −3.6001. This substance gave a treat mean under setting [3] of 714.32. The high_in_treatment result under setting [4] is “FALSE”.
Taken in the same sequence, the figures for “BLQC1S1_ACCAAAGCTTCTGTCAGGC: library sgRNA targeting BLQC-1S1 (listed as DNA, chemistry not fully specified)” were 6.0173, −1.8638, 1264.6 and “FALSE”.
Take “RPP25L_TGGCTCTGGGTCGGTTGGA: library sgRNA targeting RPP25L (as printed in the source, key not given here)”: the score under setting [1] was 6.0209. The substance also had an LFC under setting [2] of −7.7316. In addition, under setting [3], the treat mean came to 9.1906. Also, the high_in_treatment entry under setting [4] is on record as “FALSE”.
In the case of “MRPL55_CGACTCTACCCCGTGCTGC: library sgRNA targeting MRPL55 (as printed in the source, key not given here)”, the score under setting [1] is given as 6.305. The LFC under setting [2] is −4.7404. The substance also yielded a treat mean under setting [3] of 104.65. In addition, under setting [4], the high_in_treatment result is “FALSE”.
The substance “RFXAP_AGACACTTCGGACCCTCCG: library sgRNA targeting RFXAP (listed as DNA, chemistry not fully specified)” gave a score under setting [1] of 10.922. This substance displayed an LFC under setting [2] of 1.5343. This substance also returned a treat mean under setting [3] of 6378.3. Under setting [4], the high_in_treatment entry is recorded as “TRUE”.
For “N6AMT1_AGCAGAAACGTGTCCTCCG: library sgRNA targeting N6AMT1 (listed as DNA, chemistry not fully specified)”, the score under setting [1] is listed as 6.0901. Moreover, the LFC under setting [2] is −3.683. Under setting [3], this substance registered a treat mean of 224.71. The high_in_treatment entry under setting [4] is listed as “FALSE”.
Substance “HISTIH3J_CACGCAAGGCCACGGTGCC: library sgRNA targeting HIST-1H3J (listed as DNA, chemistry not fully specified)” showed a score under setting [1] of 6.0349. Under setting [2], this substance registered an LFC of 1.0769. For the same substance, the treat mean under setting [3] is recorded as 4138.5. In addition, the high_in_treatment result under setting [4] is “TRUE”.
The substance “SNF8_ACCATTGGCGTGGATCCGC: library sgRNA targeting SNF8 (as printed in the source, key not given here)” returned a score under setting [1] of 6.4788. Besides, the LFC under setting [2] was −6.2459. Besides, the treat mean under setting [3] was determined as 35.261. In addition, the high_in_treatment result under setting [4] was “FALSE”.
The like results for “RPP38_CGATTCTCTCACTGAGCCG: library sgRNA targeting RPP38 (as printed in the source, key not given here)” were, in that order, 7.8058, −3.1996, 558.49 and “FALSE”.
In the case of “IRF9_TGTATCAGTTGCTGCCACC: library sgRNA targeting IRF9 (as printed in the source, key not given here)”, under setting [1], the score is 7.0068. Also, the LFC under setting [2] was 1.2192. In addition, under setting [3], the treat mean is recorded as 4293.9. Also, the high_in_treatment result under setting [4] is “TRUE”.
Regarding “PHB_GACCGATTCCGTGGAGTGC: library sgRNA targeting PHB (as printed in the source, key not given here)”, the score under setting [1] stood at 6.0021. Besides, the LFC under setting [2] was −3.7742. The substance further came in with a treat mean under setting [3] of 202.44. Also, the high_in_treatment entry under setting [4] is listed as “FALSE”.
“IFNAR1_TCCATCAGATGCTTGTACG: library sgRNA targeting IFNAR1 (listed as DNA, chemistry not fully specified)” had a score under setting [1] of 7.1422. Besides, the LFC under setting [2] is recorded as 1.2274. The treat mean under setting [3] is listed as 4399.3. Also, the high_in_treatment entry under setting [4] is given as “TRUE”.
“BTN2A1_TCTTGGAAGTAACAGCGGT: library sgRNA targeting BTN2A1 (listed as DNA, chemistry not fully specified)” yielded a score under setting [1] of 18.758. The substance also yielded an LFC under setting [2] of 2.4492. In addition, under setting [3], the treat mean is given as 6366.6. In addition, the high_in_treatment entry under setting [4] is listed as “TRUE”.
The like results for “CCDC82_AAGAGCTTGATAGTAACAA: library sgRNA targeting CCDC82 (listed as DNA, chemistry not fully specified)” were, in that order, 7.3303, 4.8194, 83.034 and “TRUE”.
On to “GSS_ACCCCAGCTGTGCACCGGT: library sgRNA targeting GSS (listed as DNA, chemistry not fully specified)”, for which the score under setting [1] was 6.1722. Under setting [2], this substance registered an LFC of −4.0666. Under setting [3], this substance returned a treat mean of 169.48. The high_in_treatment entry under setting [4] is “FALSE”.
As to “GMPPB_GCCGTGAGCTACATGTCGC: library sgRNA targeting GMPPB (listed as DNA, chemistry not fully specified)”, the score under setting [1] is recorded as 6.4797. The LFC under setting [2] is −2.6559. In addition, under setting [3], the treat mean was found to be 627.87. Further, the high_in_treatment result under setting [4] was “FALSE”.
“FBXW7_TGAAGTCTCGTTGAAACTG: library sgRNA targeting FBXW7 (as printed in the source, key not given here)” had a score under setting [1] of 6.8093. The same substance yielded an LFC under setting [2] of 1.4811. In addition, the treat mean under setting [3] amounted to 2652.5. Also, the high_in_treatment result under setting [4] is recorded as “TRUE”.
The like results for “ACACA_GTTAGAGACGCTATTCCGC: library sgRNA targeting ACACA (listed as DNA, chemistry not fully specified)” were, in that order, 7.4534, −5.2135, 104.65 and “FALSE”.
Substance “MED26_CCTCGGAACTCACGGCATG: library sgRNA targeting MED26 (as printed in the source, key not given here)” had a score under setting [1] of 6.025. The substance also yielded an LFC under setting [2] of −1.9192. Under setting [3], the treat mean is listed as 1185.6. Also, under setting [4], the high_in_treatment entry was “FALSE”.
Turning to “EEFSEC_TCACGCTGGTCGACTGCCC: library sgRNA targeting EEFSEC (listed as DNA, chemistry not fully specified)”, the score under setting [1] is on record as 6.5622. This substance also showed an LFC under setting [2] of −8.5255. Moreover, the treat mean under setting [3] is listed as 6.8247. In addition, the high_in_treatment result under setting [4] is reported as “FALSE”.
Regarding “SUGT1_TTTGACTGATGAGTCCACT: library sgRNA targeting SUGT1 (listed as DNA, chemistry not fully specified)”, the score under setting [1] is listed as 7.7611. Under setting [2], this substance registered an LFC of 1.5136. This substance also gave a treat mean under setting [3] of 3294.2. Further, the high_in_treatment entry under setting [4] is recorded as “TRUE”.
In the case of “ZC3H12A_CCGTGACCTCCAAGGCGAG: library sgRNA targeting ZC3H12A (listed as DNA, chemistry not fully specified)”, the score under setting [1] came to 6.507. Further, the LFC under setting [2] turned out to be 1.2168. For the same substance, the treat mean under setting [3] is 3712.6. Also, under setting [4], the high_in_treatment entry is given as “TRUE”.
Taken in the same sequence, the figures for “GGNBP2_GTATGGGAACTAATGTCGC: library sgRNA targeting GGNBP2 (listed as DNA, chemistry not fully specified)” were 6.4369, 1.4472, 2491.2 and “TRUE”.
Substance “BTN3A1_TGCTGCTTCTTGGGGGAGC: library sgRNA targeting BTN3A1 (listed as DNA, chemistry not fully specified)” had a score under setting [1] of 17.532. Further, the LFC under setting [2] is on record as 2.0651. The substance further gave a treat mean under setting [3] of 8413.1. In addition, the high_in_treatment entry under setting [4] is on record as “TRUE”.
With “SARS2_GCACGGTGCTCACCACGTC: library sgRNA targeting SARS2 (chemistry not given here)”, the LFC is recorded as −3.8724, the high_in_treatment result was “FALSE”, the score worked out at 6.2052 and the treat mean came to 200.19.
For the substance “SHMT2_CAACCTCACGACCGGATCA: library sgRNA targeting SHMT2 (listed as DNA, chemistry not fully specified)”, the score under setting [1] stood at 5.9975. Also, under setting [2], the LFC was −5.253. Under setting [3], this substance displayed a treat mean of 63.415. Further, the high_in_treatment result under setting [4] is on record as “FALSE”.
With “MRPS26_CCCCCGGCCGCACACCTGA: library sgRNA targeting MRPS26 (as printed in the source, key not given here)”, the score under setting [1] stood at 7.3571. The same substance gave an LFC under setting [2] of −3.3597. The treat mean under setting [3] worked out at 431.96. In addition, the high_in_treatment entry under setting [4] was “FALSE”.
“BTN3A2_GCGGGATGGCATCACTGCA: library sgRNA targeting BTN3A2 (listed as DNA, chemistry not fully specified)”: the score under setting [1] amounted to 15.831. Moreover, the LFC under setting [2] is recorded as 2.3489. Besides, the treat mean under setting [3] was determined as 5012.6. Further, the high_in_treatment entry under setting [4] is “TRUE”.
“PRMT1_TGGTGCTGGACGTCGGCTC: library sgRNA targeting PRMT1 (listed as DNA, chemistry not fully specified)” showed a score under setting [1] of 6.7595. The LFC under setting [2] was −8.6196. Besides, the treat mean under setting [3] is 6.7801. For the same substance, under setting [4], the high_in_treatment entry is “FALSE”.

The values are drawn from patent publication US20240115705A1, “Regulation of Butyrophilin subfamily 3 member A1 (BTN3A1, CD277)” (The J. Gladstone Institutes, a testamentary trust …, priority 2021, published 2024).
